Source: patent US12090141B2, “Use of clemizole compounds for treatment of inflammatory conditions” (priority 2015, dated 2024)

Experiments:
NASH mice [1] = assay: Body weight and liver weight in NASH mice (sacrifice 9 wk); conditions: for Mean body weight on the day of sacrifice vs Vehicle group / Mean liver weight on the day of sacrifice vs Vehicle group / Mean liver-to-body weight ratio on the day of sacrifice vs Vehicle group: 9 wk; for Body weight (mean ± SD): day of sacrifice 9 wk, n = 6, oral from 6 wks, A-C 258 then 129 mg/kg once daily, D 89 mg/kg twice daily; for Liver weight (mean ± SD) / Liver-to-body weight ratio (mean ± SD): sacrifice 9 wk, n = 6
Method: (§1) NASH was induced in 55 male mice by a single subcutaneous injection of 200 μg streptozotocin (STZ, Sigma-Aldrich, USA) solution 2 days after birth and feeding with high fat diet (HFD, 57 kcal % fat, cat #: HFD32, CLEA Japan, Inc., Japan) after 4 weeks of age. Mice that had been induced have NASH by this method are referred to below as NASH mice.
(§2) Compound D was orally administered at doses of 89 mg/kg twice daily.
C57BL/6 mice (14-day-pregnant female) were obtained from Japan SLC, Inc. (Shizuoka, Japan). All animals used in the study were housed and cared for in accordance with the Japanese Pharmacological Society Guidelines for Animal Use.

NASH mice [2] = assay: Whole blood glucose and plasma ALT in NASH mice; format: in vivo, C57BL/6 mice; conditions: for Whole blood glucose levels vs Vehicle group: during the study period, non-fasting; for Plasma ALT (mean ± SD): time of sacrifice, n = 6
Method: Non-fasting blood was collected in polypropylene tubes with anticoagulant (Novo-heparin, Mochida Pharmaceutical, Japan) from submandibular bleeding at 6 (before dosing), 7 and 8 weeks of age. The collected blood samples were centrifuged and the supernatant were collected as heparinized plasma.
Non-fasting blood glucose in whole blood was measured using LIFE CHECK (EIDIA Co. Ltd., Japan). Plasma ALT was measured by FUJI DRI-CHEM 7000 (Fujifilm Corporation, Japan).

NASH mice [3] = assay: NAFLD activity score, HE staining of liver sections of NASH mice; format: in vivo, C57BL/6 mice; conditions: for NAS (mean ± SD): n = 6, NAFLD activity score by Kleiner criteria; for Steatosis score 0, number of mice: n = 6, score 0 = <5%; for Steatosis score 1, number of mice: n = 6, score 1 = 5-33%; for Hepatocyte ballooning score 1, number of mice: n = 6, score 1 = Few Balloon cells; for Lobular inflammation score 2, number of mice: n = 6, score 2 = 2-4 foci/200x; for Hepatocyte ballooning score 2, number of mice: n = 6, score 2 = Many cells/prominent ballooning; for Lobular inflammation score 3, number of mice: n = 6, score 3 = >4 foci/200x; for Lobular inflammation score 1, number of mice: n = 6, score 1 = <2 foci/200x
Method: as §1, §2
(§3) For HE staining, sections were cut from paraffin blocks of liver tissue prefixed in Bouin's solution and stained with Lillie-Mayer's Hematoxylin (Muto Pure Chemicals Co., Ltd., Japan) and eosin solution (Wako Pure Chemical Industries). NAFLD Activity score (NAS) was calculated according to the criteria of Kleiner (Kleiner D E. et al., Hepatology, 2005; 41:1313). To visualize collagen deposition, Bouin's fixed liver sections were stained using picro-Sirius red solution (Waldeck, Germany).
Definition of NAS Components

NASH mice [4] = assay: Liver fibrosis area, Sirius red staining in NASH mice; format: in vivo, C57BL/6 mice; conditions: for Sirius red-positive area (mean ± SD): liver fibrosis area, n = 6
Method: as §3
For quantitative analysis of fibrosis areas bright field images of Sirius red-stained sections were captured around the central vein for livers using a digital camera (DFC280; Leica, Germany) at 200-fold magnification, and the positive areas in 5 fields/section were measured using ImageJ software (National Institute of Health, USA).

NASH induced HCC mice = assay: Body weight and liver weight in NASH induced HCC mice (sacrifice 18 wk); format: in vivo; conditions: for Body weight (mean ± SD) / Liver weight (mean ± SD) / Liver-to-body weight ratio (mean ± SD): NASH induced HCC mice, 18 wk, n = 1-3
Source text: Table 1 below summarizes the treatment schedule.

mice with HCC = assay: Macroscopic analysis of liver tumor nodules in mice with HCC; format: in vivo, C57BL/6 mice; conditions: for Maximum diameter of nodules (mean ± SD) / Number of nodules (mean ± SD): macroscopically visible tumor nodules on liver surface, n = 1-3
Method: The number of macroscopically visible tumor nodules formed on the liver surface was measured. The maximum diameter of macroscopically visible tumor nodules formed on the liver surface was measured.

[5] = system: hepatocellular carcinoma (HCC); assay: Phase IIa open label pilot study of clemizole in subjects with hepatocellular carcinoma; format: in vivo, human
Method: The completed study treats up to 40 patients. Initial clinical results from two patients with hepatocellular carcinoma who were administered 200 mg clemizole for 3 or 5 months are described below.

CYP3A4 = CYP3A4 (Homo sapiens, UniProt P08684); assay: Clemizole metabolism by CYP450 enzymes in vitro; format: in vitro ADME
HCC [6] = conditions: phase 2 study, cited from earlier work
HCC [7] = conditions: phase 3 study, cited from earlier work
[8] = treatment period, 4 mice per group

Sequence of CYP3A4 (P08684 whole entry): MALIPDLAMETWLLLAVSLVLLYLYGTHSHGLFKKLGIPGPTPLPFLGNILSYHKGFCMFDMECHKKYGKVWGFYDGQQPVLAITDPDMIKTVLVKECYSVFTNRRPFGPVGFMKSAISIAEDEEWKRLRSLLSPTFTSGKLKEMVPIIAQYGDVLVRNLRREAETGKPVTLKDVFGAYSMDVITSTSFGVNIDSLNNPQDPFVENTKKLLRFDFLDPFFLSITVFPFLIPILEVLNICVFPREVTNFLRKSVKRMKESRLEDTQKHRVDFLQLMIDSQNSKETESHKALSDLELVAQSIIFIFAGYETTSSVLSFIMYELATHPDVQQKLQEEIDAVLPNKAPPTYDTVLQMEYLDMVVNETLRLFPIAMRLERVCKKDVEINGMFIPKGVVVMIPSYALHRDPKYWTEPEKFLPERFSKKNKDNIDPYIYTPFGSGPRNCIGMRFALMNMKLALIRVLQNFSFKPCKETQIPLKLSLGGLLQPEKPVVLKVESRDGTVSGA

| Compound | Mean body weight on the day of sacrifice vs Vehicle group (NASH mice [1]) | Mean liver weight on the day of sacrifice vs Vehicle group (NASH mice [1]) | Mean liver-to-body weight ratio on the day of sacrifice vs Vehicle group (NASH mice [1]) | Body weight (mean ± SD) (NASH mice [1]) [g] | Liver weight (mean ± SD) (NASH mice [1]) [mg] | Liver-to-body weight ratio (mean ± SD) (NASH mice [1]) [%] | Whole blood glucose levels vs Vehicle group (NASH mice [2]) | Plasma ALT (mean ± SD) (NASH mice [2]) [U/L] | NAS (mean ± SD) (NASH mice [3]) | Steatosis score 0, number of mice (NASH mice [3]) | Steatosis score 1, number of mice (NASH mice [3]) | Lobular inflammation score 2, number of mice (NASH mice [3]) | Hepatocyte ballooning score 2, number of mice (NASH mice [3]) | Lobular inflammation score 3, number of mice (NASH mice [3]) | Fibrosis area at the time of sacrifice vs Vehicle group (NASH mice [4]) | Sirius red-positive area (mean ± SD) (NASH mice [4]) [%] | Liver weight (mean ± SD) (NASH induced HCC mice) [mg] | Liver-to-body weight ratio (mean ± SD) (NASH induced HCC mice) [%] | Maximum diameter of nodules (mean ± SD) (mice with HCC; 18 wk) [mm] | Number of nodules (mean ± SD) (mice with HCC; 18 wk) | also measured |
| --- | --- | --- | --- | --- | --- | --- | --- | --- | --- | --- | --- | --- | --- | --- | --- | --- | --- | --- | --- | --- | --- |
| CCN(CC)CCCC(C)Nc1ccnc2cc(Cl)ccc12 (stereo not drawn) [Compound A, Recemic mixture of R-chloroquine and S-chloroquine] | no significant differences | no significant differences | no significant differences | 15.0 ± 1.9 | 1045 ± 243 | 7.0 ± 1.4 | no significant differences | 21 ± 13 | 5.2 ± 0.8 | 1 | 5 | 1 | 3 | 5 | no significant differences | 0.87 ± 0.23 | 1443 ± 0 | 8.2 ± 0.0 | 6.1 ± 0.0 | 2.0 ± 0.0 | Hepatocyte ballooning score 1, number of mice (NASH mice [3]): 3; Body weight (mean ± SD) (NASH induced HCC mice): 17.5 ± 0.0 g; Mice died before reaching week 18 (NASH induced HCC mice; [8]): Three out of 4 |
| CCN(CC)CCC[C@@H](C)Nc1ccnc2cc(Cl)ccc12 [Compound B, R-chloroquine] | no significant differences | no significant differences | no significant differences | 14.5 ± 2.4 | 934 ± 135 | 6.5 ± 0.4 | no significant differences | 14 ± 6 | 4.3 ± 0.5 | 1 | 5 | 4 | 5 |  | no significant differences | 0.78 ± 0.35 | 1616 ± 635 | 7.9 ± 3.0 | 11.1 ± 7.0 | 2.0 ± 1.4 | NAS compared with the Vehicle group (NASH mice [3]): significant reduction; Lobular inflammation score 1, number of mice (NASH mice [3]): 2; Hepatocyte ballooning score 1, number of mice (NASH mice [3]): 1; Body weight (mean ± SD) (NASH induced HCC mice): 20.4 ± 0.3 g; Mice died before reaching week 18 (NASH induced HCC mice; [8]): Two out of 4 |
| CCN(CC)CCC[C@H](C)Nc1ccnc2cc(Cl)ccc12 [Compound C, S-chloroquine] | significantly decreased | significantly decreased | no significant differences | 13.7 ± 1.3 | 810 ± 77 | 5.9 ± 0.4 | no significant differences | 9 ± 3 | 5.3 ± 0.5 |  | 6 | 4 | 6 | 2 | no significant differences | 0.90 ± 0.44 | 1353 ± 178 | 7.6 ± 0.1 | 3.5 ± 5.0 | 1.5 ± 2.1 | Body weight (mean ± SD) (NASH induced HCC mice): 17.9 ± 2.8 g; Mice died before reaching week 18 (NASH induced HCC mice; [8]): Two out of 4 |
| Clc1ccc(Cn2c(CN3CCCC3)nc3ccccc32)cc1 [Compound D, clemizole] | no significant differences | no significant differences | no significant differences |  | 1047 ± 76 | 6.8 ± 0.4 | no significant differences | 18 ± 10 | 4.3 ± 1.0 | 1 | 5 | 1 | 6 | 1 | no significant differences | 0.95 ± 0.39 | 1710 ± 113 | 6.3 ± 0.8 | 0.7 ± 1.2 | 0.3 ± 0.6 | NAS compared with the Vehicle group (NASH mice [3]): significant reduction; Lobular inflammation score 1, number of mice (NASH mice [3]): 4; Mice died before reaching week 18 (NASH induced HCC mice; male, C57BL/6, mouse, in vivo): one out of 4; Survived mice with absence of visible tumor nodules on the liver surface (mice with HCC; 18 wk): 2 out of 3; Tumor formation in mouse livers (FIG. 8, representative images) (mice with HCC; mouse, in vivo): inhibition of tumor formation; HCC status on follow up dynamic liver CT imaging ([5]; Patient #1, 200 mg clemizole orally thrice daily, after 3 months): the HCC remained stable; Tolerability (complaints or side effects) ([5]; Patient #1, 200 mg thrice daily, after 3 months): no complaints or side effects; HCC status on follow up dynamic liver magnetic resonance imaging ([5]; Patient #2, 200 mg clemizole orally thrice daily, after 5 months): the HCC remained stable; Tolerability (complaints or side effects) ([5]; Patient #2, 200 mg thrice daily, after 5 months): no complaints or side effects; Role of CYP3A4 in clemizole biotransformation in human liver (CYP3A4): mediates the majority of this drug biotransformation reaction |
| CNC(=O)c1cc(Oc2ccc(NC(=O)Nc3ccc(Cl)c(C(F)(F)F)c3)cc2)ccn1 [sorafenib] |  |  |  |  |  |  |  |  |  |  |  |  |  |  |  |  |  |  |  |  | Toxicity: diarrhea (HCC [6]; all grades): over 40%; Toxicity: fatigue (HCC [6]; all grades): 30%; Toxicity: hand-foot skin reaction (HCC [6]; all grades): over 30%; Grade 3/4 drug-related toxicity: diarrhea (HCC [6]): 8.0%; Grade 3/4 drug-related toxicity: fatigue (HCC [6]): 9.5%; Grade 3/4 drug-related toxicity: hand-foot skin reaction (HCC [6]): 5.1%; Median time to progression (TTP) (HCC [6]): 4.2 months; Hypophosphatemia (HCC [7]; grade 3): 11%; Thrombocytopenia (HCC [7]; grade 3 or 4): 4%; Median time to radiologic progression (HCC [7]): 5.5 months; Overall incidence of treatment-related adverse events (HCC [7]): 80% |
